Experiments:
[1] = system: panel of 61 protein kinases; test: Panel of 61 protein kinases; assay type: biochemical, human; settings: 10 μM
Source text: Utilizing the crystal structure of PI3Kδ, we designed and synthesized a series of compounds in an effort to discover new potent and selective PI3Kδ inhibitors, which bind to PI3Kδ differently from CAL-101. […] The benzimidazole group of X-370 extends into the affinity pocket, where its nitrogen acts as a hydrogen bond acceptor for the primary amine of Lys779. The difluoromethyl group of X-370 points toward Pro758 in the hydrophobic affinity pocket. Instead of wedging between Met752 and Trp760, a binding mode utilized by CAL-101 to generate specificity against PI3Kδ (Figure S1), the pyrrole group of X-370 presses tightly against Trp760. These specific interactions of X-370 with p110δ confer a selective and potent inhibition of PI3Kδ. […]
In vitro kinase profile assays were analyzed by the Kinase Profiler Service (Millipore, United Kingdom) following its guidelines. […] The PI3K kinase activity was determined in the increasing concentration of ATP and X-370 with PI3-Kinase HTRF™ Assay kit (Millipore) as described previously. […]
Cell lysates were probed with indicated antibodies. The IC50 values were calculated based on relative band intensity measured with ImageQuant™ TL (GE Healthcare Life Sciences, Piscataway, NJ). […]

Raji cells = test: Caspase 3/7 activity assay; assay type: cell-based, human
Method: (§1) Simultaneous targeting of PI3Kδ and a PI3Kδ-dependent MEK1/2-Erk1/2 pathway for therapy in pediatric B-cell acute lymphoblastic […]
Cells were treated as indicated conditions and then subjected to lysate to perform standard Western blot as described previously1. Briefly, whole-cell lysates and SDS-loading buffer diluted cell fractions were analyzed on SDS-PAGE gels. Transfer to nitrocellulose membranes, nonfat milk blocking, probing with indicated primary antibodies and the corresponding HRP-conjugated second antibodies.
Chemiluminescence were performed and captured using ImageQuant LAS 4000 (GE healthcare Life Sciences, Piscataway, NJ, USA) and band intensity was measure both with ImageQuant™ TL (GE Healthcare Life Sciences) 2.
Caspase 3/7 activity assay
Raji cells were treated with or without X-370 at 1 μM, 5μM and 10 μM for 24, 48 and 72 hours, thenwere measured using the Caspase-Glo® 3/7 Assay (Promega, US) following the protocol and relative caspase-3/7 activity was normalized to cell number which DMSO control was the base line.
5-bromo-2'-deoxyuridine (BrdU) incorporation Assay
5-bromo-2'-deoxyuridine (BrdU) incorporation was performed using FITC BrdU Flow Kit (BD Pharmingen, San Diego, CA) according to the provided protocol.
Figure S1;. CAL-101 docked to the crystal structure of PI3Kδ. […]

Raji-R cells = test: Signaling by Western blot in Raji-R cells; assay type: cell-based, human; settings: 1 h
Method: Raji and SU-DHL-6 cells were treated with X-370 for 1 h (left panel) or treated with 0.5 μM X-370 for indicated times (middle panel). Right panel, Raji cells were incubated in fresh medium following treatment with 0.5 μM X-370 for 1 h. Indicated proteins were detected. (B) Raji-R (the rituximab-resistant derivatives of Raji cells) cells were resistant to X-370. The activity of X-370 on the proliferation of Raji parent and Raji-R cells was determined by CCK-8 assay as described in the methods section. (C) X-370 blocked phosphorylation of Akt but not Erk1/2 in Raji-R cells. Raji-R cells were treated with X-370 for 1h and indicated proteins were detected. Data shown are representative from three independent experiments.
as §1
Cells were treated as indicated conditions and then subjected to lysate to perform standard Western blot as described previously1. Briefly, whole-cell lysates and SDS-loading buffer diluted cell fractions were analyzed on SDS-PAGE gels. […]
Raji cells were treated with or without X-370 at 1 μM, 5μM and 10 μM for 24, 48 and 72 hours, thenwere measured using the Caspase-Glo® 3/7 Assay (Promega, US) following the protocol and relative caspase-3/7 activity was normalized to cell number which DMSO control was the base line. […]

## O=C(N1CCCC1)N1CCC(n2cnc3c(-n4c(C(F)F)nc5ccccc54)nc(N4CCOCC4)nc32)CC1 [X-370]
[1]
  activity against all kinases of the panel: little activity
Raji cells
  concentration at which caspase 3/7 activity increased: ≥ 5 µM
Raji-R cells
  Akt and S6k1 phosphorylation: significantly inhibited
  level of phosphorylated Erk1/2: negligible activity
